Tests used:
[1] = system: L8, normal rat skeletal muscle cells; details: 24 h
Method: (§2) In order to assess the cytotoxicity of the drugs to normal cells, we used 96 well plates plated at a density of 5000 cells per well (except for the FDC-P1 which were plated at 12,000 cells per well) with normal cell lines (ATCC, Table 1) maintained as per the directions of the ATCC: AML-12, normal mouse liver cells; NRK-52E, normal rat kidney cells; L8, normal rat skeletal muscle cells; FDC-P1, normal mouse myelogeous stem cells; and H9c2 (2-1), normal rat cardiac muscle cells. The cells in each plate were permitted to settle overnight before adding the test drug.
(§3) To each well (100 μl medium) 10 μl of drug in media was added at varying concentrations (1×10-10-0.01 mg/ml final concentration) and further incubated overnight at 37° C. with 5% CO2. After 24 h the following assays were performed. All experiments were repeated at least 3 times and were assayed in duplicate.
(§4) MTS assay (CellTiter 96 aqueous) was performed according to the manufacturer's (Promega) directions (for all cell types). Cell viability (mitochondrial activity) is determined via enzymatic conversion of the formazan substrate.

DU145 = assay: cells; assay type: cell-based; details: Homo sapiens, DU-145, 48 h
Summary of the method: (§1)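 Readout: SRB OD490, triplicate wells. Setup: 5×10^3 cells/well, RPMI 1640 + 10% FBS, 37° C, 5% CO2; 18 h pre-attachment; 48 h sample exposure, 10 to 10^−8 μg/ml. Outputs GI, TGI (cytostatic), LC (cytotoxic).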

A498 = assay: cells; assay type: cell-based; details: Homo sapiens
Summary of the method: as §1

MB231 = assay: cells; assay type: cell-based; details: Homo sapiens
Summary of the method: as §1

A549 = assay: cells; assay type: cell-based; details: Homo sapiens, A549, 48 h
Summary of the method: as §1

MEL-28 = assay: cells; assay type: cell-based; details: Homo sapiens, SK-MEL-28, 48 h
Summary of the method: as §1

MCF = assay: cells; assay type: cell-based; details: Homo sapiens
Summary of the method: as §1

HT29 = assay: cells; assay type: cell-based; details: Homo sapiens, HT-29, 48 h
Summary of the method: as §1

SW-620 = assay: cells; assay type: cell-based; details: Homo sapiens
Summary of the method: as §1

[2] = system: AML-12, normal mouse liver cells; details: 24 h
[3] = system: NRK-52E, normal rat kidney cells; details: 24 h
[4] = system: FDC-P1, normal mouse myelogeous stem cells; details: 24 h
Method: as §2, §3, §4

[5] = system: H9c2 (2-1), normal rat cardiac muscle cells; details: 24 h

Compound COc1c(C)cc2c(c1O)[C@@H]1C3[C@@H]4SC[C@]5(NCCc6c5[nH]c5ccccc65)C(=O)COC[C@@H](c5c6c(c(C)c(OC(C)=O)c54)OCO6)N3[C@@H](O)[C@H](C2)N1C (some centres unmarked) [Compound 26] has a Skeletal [1] of 3.71E−08, a GI50 (DU145; DU145, 48 hours exposure, SRB) of 2.65 nM and an IC (TGI) (DU145; DU145, 48 hours exposure, SRB) of 3.97 nM. For the same compound, the CC50 (DU145; read-out: LC50, DU145, 48 hours exposure, SRB) was 10.6 nM, the CC50 (A498; A498, 48 h, read-out: LC50) was 26.5 nM and the GI50 (A498; A498, 48 hours exposure, SRB) was 2.65 nM. It also gave an IC (TGI) (A498; A498, 48 hours exposure, SRB) of 6.62 nM, a CC50 (MB231; 48 h, read-out: LC50) of 13.2 nM and a GI50 (MB231; MB231, 48 hours exposure, SRB) of 2.65 nM. It also gave an IC (TGI) (MB231; MB231, 48 hours exposure, SRB, read-out: TGI) of 5.3 nM, a GI50 (A549; A549, 48 hours exposure, SRB, read-out: GI50) of 2.65 nM and an IC (TGI) (A549; A549, 48 hours exposure, SRB, read-out: TGI) of 3.97 nM. The CC50 (A549; read-out: LC50, A549, 48 hours exposure, SRB) was 13.2 nM, the GI50 (MEL-28; MEL-28, 48 hours exposure, SRB) was 2.65 nM and the IC (TGI) (MEL-28; MEL-28, 48 hours exposure, SRB) was 5.3 nM. For the same compound, the CC50 (MEL-28; read-out: LC50, MEL-28, 48 hours exposure, SRB) was 10.6 nM, the CC50 (MCF; 48 h, read-out: LC50) was 11.9 nM and the GI50 (MCF; MCF, 48 hours exposure, SRB) was 2.65 nM. It also gave an IC (TGI) (MCF; MCF, 48 hours exposure, SRB, read-out: TGI) of 5.3 nM, a GI50 (HT29; HT29, 48 hours exposure, SRB) of 3.97 nM and an IC (TGI) (HT29; HT29, 48 hours exposure, SRB) of 7.95 nM. The CC50 (HT29; read-out: LC50, HT29, 48 hours exposure, SRB) was 13.2 nM, the CC50 (SW-620; SW-620, 48 h, read-out: LC50) was 79.5 nM and the IC (TGI) (SW-620; SW-620, 48 hours exposure, SRB) was 7.95 nM. It also gave a GI50 (SW-620; SW-620, 48 hours exposure, SRB, read-out: GI50) of 2.65 nM, a Liver [2] of 1.06E−06 and a Kidney [3] of 4.60E−08. It also gave a Myelo [4] of 1.03E−07 and a Heart [5] of 6.43E−07.
